Four molecules from PubChem BioAssay (NCI) can be followed below.

Molecules are shown by their SMILES.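 Method: 48-hour compound exposure of cells in 96-well plates, five concentrations, linear interpolation of endpoints. GI50 = concentration required for 50% inhibition of growth. TGI marks complete inhibition of growth.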 Some results are limits rather than exact numbers.

Test systems include NCI-H460 lung; SF-268 CNS; DU-145 prostate; HCT-15 colon; UO-31 renal; HOP-92 NSCLC; SK-MEL-5 melanoma; SNB-75 CNS; HL-60(TB) leukemia; OVCAR-4 ovarian.
What all share (assay): NCI anticancer screen, dose series, 48 h

As for `COc1cc(C2CC(c3cccc(Nc4ccncc4)c3)=NN2c2cc(Cl)cc(Cl)c2)cc(OC)c1OC` (configuration not stated), the GI50 was 1.73 µM in the test on NCI-H460 lung; 1.61 µM in the test with SF-268 CNS; 1.68 µM with DU-145 prostate; 1.79 µM in the test on HCT-15 colon; 1.44 µM with UO-31 renal; 1.12 µM in the test on HOP-92 NSCLC. The GI50 with SK-MEL-5 melanoma was 1.8 µM; in the test on SNB-75 CNS, 1.31 µM; in the test with HL-60(TB) leukemia, 1.53 µM. Moreover, the TGI in the test on NCI-H460 lung is 3.28 µM; with SF-268 CNS, 3.21 µM; in the test with DU-145 prostate, 3.08 µM; in the test with HCT-15 colon it was 3.43 µM; in the test on UO-31 renal, 2.79 µM; with HOP-92 NSCLC it was 2.44 µM. Moreover, the TGI in the test on SK-MEL-5 melanoma stood at 3.24 µM; in the test on SNB-75 CNS it was 3.06 µM; in the test with HL-60(TB) leukemia, 3.65 µM.

`COc1cc2cc(Oc3ccc(NC(=O)Nc4ccc(F)c(C(F)(F)F)c4)cc3)c(C)nc2cc1OCCN1CCCCC1`: the GI50 in the test on NCI-H460 lung is 1.89 µM; in the test on DU-145 prostate, 1.75 µM; in the test on UO-31 renal it was 1.41 µM; with HOP-92 NSCLC, 1.52 µM; with OVCAR-4 ovarian it was 1.6 µM; with SK-MEL-5 melanoma, 1.7 µM. Further, the GI50 is 1.33 µM in the test on SNB-75 CNS and 1.91 µM with HL-60(TB) leukemia. The TGI worked out at 3.6 µM in the test with NCI-H460 lung; 3.2 µM in the test with DU-145 prostate; 2.73 µM with UO-31 renal; 3.02 µM in the test on HOP-92 NSCLC; 3.13 µM in the test with OVCAR-4 ovarian; 3.09 µM with SK-MEL-5 melanoma. The TGI with SNB-75 CNS came out at 2.6 µM; in the test with HL-60(TB) leukemia, 3.81 µM.

Consider `CCOC(=O)c1ncoc1[C@H]1COC(C)(C)O1`, for which the TGI in the test on NCI-H460 lung, in the test on SF-268 CNS, in the test on HCT-15 colon, with UO-31 renal, with OVCAR-4 ovarian and in the test on SK-MEL-5 melanoma was over 100 µM throughout. For the same molecule, the TGI with SNB-75 CNS and in the test with HL-60(TB) leukemia was over 100 µM throughout.

For `O=C(c1ccccc1)c1nn(-c2ccc(Cl)cc2)c2nc3nc(-c4ccccc4)cc(=O)n3nc12`, the GI50 in the test with NCI-H460 lung was 39.1 µM; in the test with SF-268 CNS, 42.2 µM; with DU-145 prostate it was 30.7 µM; with HCT-15 colon it was 38.2 µM; in the test with UO-31 renal, 25.7 µM; in the test with HOP-92 NSCLC, 22.1 µM. The GI50 is 39.9 µM in the test on OVCAR-4 ovarian, 20.4 µM with SK-MEL-5 melanoma, 28.8 µM with SNB-75 CNS and 3.48 µM in the test on HL-60(TB) leukemia. Besides, the TGI with NCI-H460 lung was over 100 µM; in the test with SF-268 CNS, over 100 µM; in the test on DU-145 prostate, over 100 µM; in the test with HCT-15 colon it was over 100 µM; with UO-31 renal, over 100 µM; in the test with HOP-92 NSCLC, 74.7 µM. For the same molecule, the TGI with OVCAR-4 ovarian is over 100 µM; in the test on SK-MEL-5 melanoma, 51.9 µM; in the test with SNB-75 CNS, 97.9 µM; in the test on HL-60(TB) leukemia it was 14.8 µM.
